In patent publication US7998975B2, “Nitrogenous fused-ring derivatives, medicinal compositions containing the derivatives, and use thereof as drugs” (Kissei Pharmaceutical Co., Ltd., priority 2004, dated 2011):

Experiments:
[1] = test system: diabetic rats; assay: Assay for inhibitory effects on blood glucose level increase in rats (liquid meal tolerance test); format: in vivo, Wistar rats; conditions: liquid meal load, mean±S.E.; for Plasma glucose concentration 0.5 h: 0.5 hour after administration; for Plasma glucose concentration 1 h: 1 hour after administration; for Plasma glucose concentration 0 h: pretreatment (0 h)
Description: Assay for Inhibitory Effects on Blood Glucose Level Increase in Rats
1) Preparation of Diabetic Rat Model
Male Wistar rats (Japan Charles River), aged 8 weeks old, were injected nicotinamide (230 mg/kg) intraperitoneally. Fifteen minutes after injection, they were injected streptozotocin (85 mg/kg) intravenously from tail vain under anesthesia with ether. After a week, rats were fasted overnight and then glucose tolerance test (2 g/kg) was done.
2) Liquid Meal Tolerance Test
After overnight fasted, the diabetic rats were orally administered a test compound (0.5, 2 mg/kg), which was dissolved in distilled water, in the drug-treating group, or distilled water alone in a control group. Immediately after the compound administration, 4.5 kcal/body of liquid meal (No. 038, Control diet, assorted with dextrin and maltose; Oriental Yeast Co., Ltd.) was loaded orally. The blood was collected from tail artery immediately before and after administration with the time course, and treated with heparin immediately. The blood was centrifuged, and the plasma was collected to quantify the plasma glucose concentration by glucose oxidase method. The values in the Table are presented as the mean±S.E.

[2] = target: T1, human SGLT2 (Homo sapiens, UniProt P31639); assay: Assay for inhibitory effects on human SGLT2 activity (uptake of methyl-α-D-glucopyranoside in CS2-5E cells); format: cell-based; conditions: inhibition of 14C α-MG uptake, CHO-K1 derived CS2-5E cells stably expressing human SGLT2, 1 mM α-MG, 37° C., 1 hour
T1 construct: expressed in transfected cells
T1 sequence (P31639 1-672): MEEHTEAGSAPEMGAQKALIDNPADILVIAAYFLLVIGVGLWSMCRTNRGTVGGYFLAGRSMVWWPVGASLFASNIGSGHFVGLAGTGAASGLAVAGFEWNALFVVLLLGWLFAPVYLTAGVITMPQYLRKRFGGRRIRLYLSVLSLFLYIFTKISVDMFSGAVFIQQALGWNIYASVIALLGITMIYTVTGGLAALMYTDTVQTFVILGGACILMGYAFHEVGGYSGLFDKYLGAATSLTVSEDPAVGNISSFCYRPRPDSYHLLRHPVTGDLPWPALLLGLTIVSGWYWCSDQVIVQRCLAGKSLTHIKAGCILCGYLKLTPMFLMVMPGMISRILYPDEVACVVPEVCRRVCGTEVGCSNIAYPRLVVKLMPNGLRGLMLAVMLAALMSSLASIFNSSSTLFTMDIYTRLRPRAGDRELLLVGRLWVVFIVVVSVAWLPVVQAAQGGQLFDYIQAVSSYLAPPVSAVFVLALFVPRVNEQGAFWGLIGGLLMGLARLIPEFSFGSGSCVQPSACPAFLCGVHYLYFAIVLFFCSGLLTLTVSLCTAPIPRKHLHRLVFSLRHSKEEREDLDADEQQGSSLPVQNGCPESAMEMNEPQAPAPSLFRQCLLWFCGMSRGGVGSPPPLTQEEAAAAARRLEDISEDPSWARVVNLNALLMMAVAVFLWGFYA
Description: Assay for Inhibitory Effects on Human SGLT2 Activity
1) Cloning and Construction of the Vector Expressing Human SGLT2
(§1) The cDNA library was prepared for PCR amplification by reverse transcription from total RNA deprived from human kidney (Ori gene) using oligo-dT as a primer. Using this cDNA library as a template, the DNA fragment coding 2 to 2039 bp of human SGLT2 (ACCESSION: M95549, M95299), which was reported by R. G. Wells et al., was amplified by PCR method and inserted into the multi-cloning site of pcDNA3.1(−) (Invitrogen). The DNA sequence inserted was perfectly matched to the previously reported sequence.
2) Establishment of Cell Line Stably Expressing Human SGLT2
(§2) The expression vector of human SGLT2 was digested by Sca I into a linear DNA. The linear DNA was transfected into CHO-K1 cells by means of lipofection (Effectene Transfection Reagent: QIAGEN). Neomycin resistant cell lines were selected by culture in the medium containing G418 (1 mg/mL, LIFE TECHNOLOGIES), and then the activity against the uptake of methyl-α-D-glucopyranoside was measured by the method described below. […] CS2-5E cells were cultured in the presence of G418 at 200 μg/mL. […]
CS2-5E cells were seeded into a 96-well culture plate at a density of 3×10^4 cells/well and cultured for 2 days, and were used in the uptake assay. […] Radioactivity was measured by means of micro-scintillation counter TopCount (Packard). […]

[3] = target: T2, human SGLT1 (Homo sapiens, UniProt P13866); assay: Assay for inhibitory effects on human SGLT1 activity (uptake of methyl-α-D-glucopyranoside in CS1-5-11D cells); format: cell-based; conditions: inhibition of 14C α-MG uptake, CHO-K1 derived CS1-5-11D cells stably expressing human SGLT1, 1 mM α-MG, 37° C., 1 hour
T2 construct: expressed in transfected cells
T2 sequence (P13866 1-664): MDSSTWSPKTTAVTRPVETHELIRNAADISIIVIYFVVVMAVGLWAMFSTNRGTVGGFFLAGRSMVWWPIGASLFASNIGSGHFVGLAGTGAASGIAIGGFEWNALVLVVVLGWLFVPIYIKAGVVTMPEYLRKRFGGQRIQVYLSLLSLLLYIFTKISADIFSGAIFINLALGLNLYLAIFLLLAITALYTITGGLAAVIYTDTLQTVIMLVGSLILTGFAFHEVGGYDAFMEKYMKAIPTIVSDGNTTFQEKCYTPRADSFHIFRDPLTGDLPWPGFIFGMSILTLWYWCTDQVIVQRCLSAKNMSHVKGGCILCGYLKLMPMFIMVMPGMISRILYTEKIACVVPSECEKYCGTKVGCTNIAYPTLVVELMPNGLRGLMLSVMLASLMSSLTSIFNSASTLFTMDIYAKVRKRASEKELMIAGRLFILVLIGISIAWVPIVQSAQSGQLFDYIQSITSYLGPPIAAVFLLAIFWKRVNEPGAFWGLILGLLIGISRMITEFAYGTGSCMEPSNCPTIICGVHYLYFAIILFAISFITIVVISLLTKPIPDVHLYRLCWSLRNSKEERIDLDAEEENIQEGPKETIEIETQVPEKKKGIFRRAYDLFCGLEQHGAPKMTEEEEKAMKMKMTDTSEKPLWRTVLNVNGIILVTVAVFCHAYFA
Description: Assay for Inhibitory Effects on Human SGLT1 Activity
1) Cloning and Construction of the Vector Expressing Human SGLT1
as §1, with “small intestine” for “kidney”, “1” for “2”, “2005” for “2039”, “SGLT1” for “SGLT2”, “M24847),” for “M95549, M95299),”, “Hediger” for “R. G. Wells”
2) Establishment of Cell Line Stably Expressing Human SGLT1
as §2, with “SGLT1” for “SGLT2”, “CS1-5-11D” for “CS2-5E”
CS1-5-11D cells were seeded into a 96-well culture plate at a density of 3×10^4 cells/well and cultured for 2 days, and were used in the uptake assay. […] Radioactivity was measured by means of micro-scintillation counter TopCount (Packard). […]

OCCn1nc(O[C@@H]2O[C@H](CO)[C@@H](O)[C@H](O)[C@H]2O)c2c(CCc3ccc(O)cc3)cccc21 [Example 59, 3-(β-D-Glucopyranosyloxy)-1-(2-hydroxyethyl)-4-[2-(4-hydroxyphenyl)ethyl]-1H-indazole]
Plasma glucose concentration 0.5 h ([1]; 0.5 mg/kg orally): 173 ± 7 mg/dL | Plasma glucose concentration 1 h ([1]; 0.5 mg/kg orally): 186 ± 6 mg/dL | Plasma glucose concentration 0 h ([1]; 0.5 mg/kg orally): 109 ± 2 mg/dL | Plasma glucose concentration 0.5 h ([1]; 2 mg/kg orally): 141 ± 3 mg/dL | Plasma glucose concentration 1 h ([1]; 2 mg/kg orally): 153 ± 4 mg/dL | Plasma glucose concentration 0 h ([1]; 2 mg/kg orally): 115 ± 3 mg/dL

OC[C@H]1O[C@@H](Oc2n[nH]c3cccc(CCc4ccccc4)c23)[C@H](O)[C@@H](O)[C@@H]1O [Example 4, 3-(β-D-Glucopyranosyloxy)-4-(2-phenylethyl)-1H-indazole]
IC50 [2]: 90 nM

Cc1cc(CCc2cccc3[nH]nc(O[C@@H]4O[C@H](CO)[C@@H](O)[C@H](O)[C@H]4O)c23)ccc1O [Example 5, 3-(β-D-Glucopyranosyloxy)-4-[2-(4-hydroxy-3-methylphenyl)-ethyl]-1H-indazole]
IC50 [3]: 12 nM

NC(=O)Cn1nc(O[C@@H]2O[C@H](CO)[C@@H](O)[C@H](O)[C@H]2O)c2c(CCc3ccc(O)cc3)ccnc21 [Example 12, 1-Carbamoylmethyl-3-(β-D-glucopyranosyloxy)-4-[2-(4-hydroxyphenyl)ethyl]-1H-pyrazolo[3,4-b]pyridine]
IC50 [3]: 100 nM

OCCn1nc(O[C@@H]2O[C@H](CO)[C@@H](O)[C@H](O)[C@H]2O)c2c(CCc3ccccc3)ccnc21 [Example 17, 3-(β-D-Glucopyranosyloxy)-1-(2-hydroxyethyl)-4-(2-phenylethyl)-1H-pyrazolo[3,4-b]pyridine]
IC50 [2]: 68 nM
